The target in test [1] is T1, hMAGL (Homo sapiens, UniProt Q99685).
T1 construct: expressed in transfected cells; host or cells: HEK
T1 sequence (Q99685 1-303): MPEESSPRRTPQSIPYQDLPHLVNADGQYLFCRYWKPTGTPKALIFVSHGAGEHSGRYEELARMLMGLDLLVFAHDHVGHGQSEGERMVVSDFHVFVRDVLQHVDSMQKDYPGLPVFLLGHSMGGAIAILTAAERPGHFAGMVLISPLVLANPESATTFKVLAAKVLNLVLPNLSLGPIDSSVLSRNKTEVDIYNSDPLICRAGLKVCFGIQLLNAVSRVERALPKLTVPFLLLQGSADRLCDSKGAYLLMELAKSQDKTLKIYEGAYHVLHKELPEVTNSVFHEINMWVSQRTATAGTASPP
As to the kind of experiment: Hydrolase activity assay, hMAGL-HEK lysates. It is filed as biochemical. The following applies: hMAGL-HEK lysates.

For test [2], the target named is T2, hFAAH (Homo sapiens, UniProt O00519).
T2 construct: expressed in transfected cells; host or cells: COS-7
T2 sequence (O00519 1-579): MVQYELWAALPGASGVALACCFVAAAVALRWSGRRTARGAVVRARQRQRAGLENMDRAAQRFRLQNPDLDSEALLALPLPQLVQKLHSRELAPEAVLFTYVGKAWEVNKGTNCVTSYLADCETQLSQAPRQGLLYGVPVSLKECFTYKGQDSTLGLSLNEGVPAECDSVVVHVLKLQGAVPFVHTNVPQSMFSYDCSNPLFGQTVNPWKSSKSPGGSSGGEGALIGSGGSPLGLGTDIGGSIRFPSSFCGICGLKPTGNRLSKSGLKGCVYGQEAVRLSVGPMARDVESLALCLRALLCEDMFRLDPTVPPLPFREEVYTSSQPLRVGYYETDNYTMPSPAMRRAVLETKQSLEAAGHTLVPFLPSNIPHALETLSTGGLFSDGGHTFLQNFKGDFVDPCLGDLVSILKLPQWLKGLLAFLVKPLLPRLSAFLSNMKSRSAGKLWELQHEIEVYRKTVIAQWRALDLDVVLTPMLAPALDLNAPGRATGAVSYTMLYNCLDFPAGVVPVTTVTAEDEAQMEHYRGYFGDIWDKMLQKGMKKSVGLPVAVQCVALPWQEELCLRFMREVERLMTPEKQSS
The test can be described thus: FAAH activity assay, hFAAH-COS7 membranes (3H-anandamide). In kind it is biochemical.

Test [3] deals with T3, BAT5 (Mus musculus, UniProt Q9Z1Q2).
T3 sequence (Q9Z1Q2 1-558): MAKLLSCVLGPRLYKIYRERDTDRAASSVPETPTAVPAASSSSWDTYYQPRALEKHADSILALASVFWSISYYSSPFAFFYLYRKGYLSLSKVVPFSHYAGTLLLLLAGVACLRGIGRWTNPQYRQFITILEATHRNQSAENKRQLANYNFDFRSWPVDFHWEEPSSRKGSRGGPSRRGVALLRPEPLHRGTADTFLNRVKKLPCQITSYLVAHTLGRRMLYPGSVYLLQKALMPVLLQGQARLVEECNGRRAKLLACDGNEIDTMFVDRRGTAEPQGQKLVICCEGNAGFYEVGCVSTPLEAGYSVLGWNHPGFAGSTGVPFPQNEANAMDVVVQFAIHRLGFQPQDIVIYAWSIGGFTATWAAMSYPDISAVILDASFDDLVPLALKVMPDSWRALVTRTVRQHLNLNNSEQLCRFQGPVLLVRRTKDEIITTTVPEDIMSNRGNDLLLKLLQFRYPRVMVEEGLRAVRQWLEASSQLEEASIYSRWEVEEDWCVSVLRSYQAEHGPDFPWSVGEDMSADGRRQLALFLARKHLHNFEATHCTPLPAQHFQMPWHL
As to the kind of experiment: Competitive ABPP, mouse brain membrane proteome: BAT5 band. As to conditions: tested concentration range 10^−8–10^−5 M.

“Also recorded” adds a separate entry of the source.

Compound `CCCCCCCCCC[C@@H]1C(=O)O[C@H]1CCc1ccc(OC)c(OC)c1` [Palmostatin B, palmostatin B] came in with an IC50 in test [1] of 93.3 nM. Further, in test [2], the “sensitivity of hFAAH (in words)” value is reported as “resistant”. In addition, the remaining activity at 1 µM in test [2] (at 10^−6 M) was found to be 92.4%. In addition, the “inhibition of probe binding to BAT5” value in test [3] is “dose-dependently inhibited probe binding; also recorded: dose-dependently inhibits probe labeling”.

For the origin of these results see article PMC4188605, “Biochemical and Pharmacological Characterization of the Human Lymphocyte Antigen B-Associated Transcript 5 (BAT5/ABHD16A)” (PLoS ONE, 2014).
